Consider 9 compounds from US20210130346A1, “Bromodomain Inhibitors” (AbbVie Inc., priority 2017, published 2021).

pKi: −log10 of the molar value.

The target in one test is BRD4 (BDI_K57-E168) (Homo sapiens, UniProt O60885). In words: TR-FRET bromodomain binding assay, BRD4 first bromodomain (BDI). Conditions: mean Ki; 12 nM His tagged BRD4 (BDI_K57-E168), 100 nM Alexa647 probe; Ki calculated from IC50, probe Kd and probe concentration.
A further test relates to SKM-1 xenograft tumors. Put plainly: Growth inhibition of SKM-1 xenograft tumors implanted in mice. The format is in vivo, female SCID mice. Conditions: SCID mice. How it is done: The effect of compounds of the examples to inhibit the growth of SKM-1 xenograft tumors implanted in mice was evaluated. A suspension of cancer cells (5×10^6 per 0.1 mL) prepared in RPMI culture medium (Invitrogen, Carlsbad, Calif.) was diluted 1:1 with a solution of Matrigel™ (BD Biosciences, Franklin Lakes, N.J.) and inoculated subcutaneously into the right hind flank of female SCID (Charles River Labs) mice. Randomization into treatment and vehicle control groups (8/group) occurred when the mean tumor volume reached approximately 250 mm^3. Example 3 was formulated in 10% ethanol, 30% PEG 400, 60% Phosol-50PG. Example 34 was formulated as a nanosuspension (2% low viscosity hydroxypropylcellulose polymer/0.2% sodium dodecyl sulfate in water). Administration of compound or vehicle was initiated on the day following randomization and continued for […]. Tumors were measured twice a week throughout the treatment period using a pair of calipers and tumor volumes were calculated according to the formula V=L×W^2/2 (V: volume, mm^3; L: length, mm. W: width, mm). Tumor growth inhibition was calculated based on the mean tumor volume measured on the first day that the mean volume of the vehicle group exceeded 2000 mm^3 according to the formula: % TGI=100−(100×(mean tumor volume of treatment group/mean tumor volume of control group))

For orientation: pKi means the Ki on a negative log10 scale, so that one unit is a factor of ten. Take `CN1C(=O)[C@]2(C[C@@H]2c2cn(C)c(=O)c3[nH]c(C(=O)NC4CC4)cc23)c2ccccc21` [Example 3, N-cyclopropyl-6-methyl-4-[(1S,2R)-1′-methyl-2′-oxo-1′,2′-dihydrospiro[cyclopropane-1,3′-indol]-2-yl]-7-oxo-6,7-dihydro-1H-pyrrolo[2,3-c]pyridine-2-carboxamide]: the pKi at BRD4 (BDI_K57-E168) was 5.49. In addition, the “% TGI” value is listed as 27% in the test on SKM-1 xenograft tumors (dose 5 mg/kg/d, formulated in 10% ethanol, 30% PEG 400, 60% Phosol-50PG); 33% with SKM-1 xenograft tumors (dose 15 mg/kg/d, formulated in 10% ethanol, 30% PEG 400, 60% Phosol-50PG); 43% in the test with SKM-1 xenograft tumors (dose 45 mg/kg/d, formulated in 10% ethanol, 30% PEG 400, 60% Phosol-50PG); 58% in the test on SKM-1 xenograft tumors (dose 100 mg/kg/d, formulated in 10% ethanol, 30% PEG 400, 60% Phosol-50PG); 52% in the test with SKM-1 xenograft tumors (dose 150 mg/kg/d, formulated in 10% ethanol, 30% PEG 400, 60% Phosol-50PG). Consider `Cn1cc([C@H]2C[C@]23C(=O)N(CC(F)(F)F)c2ccccc23)c2cc(C(=O)NC3CC3)[nH]c2c1=O` [Example 24, N-cyclopropyl-6-methyl-7-oxo-4-[(1S,2R)-2′-oxo-′-(2,2,2-trifluoroethyl)-1′,2′-dihydrospiro[cyclopropane-1,3′-indol]-2-yl]-6,7-dihydro-1H-pyrrolo[2,3-c]pyridine-2-carboxamide], for which the pKi at BRD4 (BDI_K57-E168) was 5.38.

Regarding `Cn1cc([C@@H]2C[C@@]23C(=O)N(CC(F)(F)F)c2ccccc23)c2cc(C(=O)NC3CC3)[nH]c2c1=O` [Example 25, N-cyclopropyl-6-methyl-7-oxo-4-[(1R,2S)-2′-oxo-′-(2,2,2-trifluoroethyl)-1′,2′-dihydrospiro[cyclopropane-1,3′-indol]-2-yl]-6,7-dihydro-1H-pyrrolo[2,3-c]pyridine-2-carboxamide], the pKi on BRD4 (BDI_K57-E168) was less than 4.89. As to `CN1C(=O)[C@]2(C[C@@H]2c2cn(C)c(=O)c3[nH]c(-c4cnn(C)c4)cc23)c2ccccc21` [Example 34, (1S,2R)-1′-methyl-2-[6-methyl-2-(1-methyl-1H-pyrazol-4-yl)-7-oxo-6,7-dihydro-1H-pyrrolo[2,3-c]pyridin-4-yl]spiro[cyclopropane-1,3′-indol]-2′(1H)-one], the pKi at BRD4 (BDI_K57-E168) was 6.36. Also, the “% TGI” value stood at 42% with SKM-1 xenograft tumors (dose 38 mg/kg/d, formulated as a nanosuspension) and 74% with SKM-1 xenograft tumors (dose 75 mg/kg/d, formulated as a nanosuspension).

With `CN1C(=O)[C@@]2(C[C@H]2c2cn(C)c(=O)c3[nH]c(-c4cnn(C)c4)cc23)c2ccccc21` [Example 35, (1R,2S)-1′-methyl-2-[6-methyl-2-(1-methyl-1H-pyrazol-4-yl)-7-oxo-6,7-dihydro-1H-pyrrolo[2,3-c]pyridin-4-yl]spiro[cyclopropane-1,3′-indol]-2′(1H)-one], at BRD4 (BDI_K57-E168), the pKi was 5.89.

`CN1C(=O)[C@]2(C[C@@H]2c2cn(C)c(=O)c3[nH]c(-c4cccnc4)cc23)c2ccccc21` [Example 48, (1S,2R)-1′-methyl-2-[6-methyl-7-oxo-2-(pyridin-3-yl)-6,7-dihydro-1H-pyrrolo[2,3-c]pyridin-4-yl]spiro[cyclopropane-1,3′-indol]-2′(1H)-one]: the pKi on BRD4 (BDI_K57-E168) was 5.85. The same measure, in the same setting: with `CN1C(=O)[C@@]2(C[C@H]2c2cn(C)c(=O)c3[nH]c(-c4cccnc4)cc23)c2ccccc21` [Example 49, (1R,2S)-1′-methyl-2-[6-methyl-7-oxo-2-(pyridin-3-yl)-6,7-dihydro-1H-pyrrolo[2,3-c]pyridin-4-yl]spiro[cyclopropane-1,3′-indol]-2′(1H)-one] the figure was 5.38. On the same count and under the same terms, with `CN1C(=O)[C@]2(C[C@@H]2c2cn(C)c(=O)c3[nH]c(-c4ccnc(C(F)(F)F)c4)cc23)c2ccccc21` [Example 52, (1S,2R)-1′-methyl-2-{6-methyl-7-oxo-2-[2-(trifluoromethyl)pyridin-4-yl]-6,7-dihydro-1H-pyrrolo[2,3-c]pyridin-4-yl}spiro[cyclopropane-1,3′-indol]-2′(1H)-one] the figure was less than 4.89.

On to `CN1C(=O)[C@@]2(C[C@H]2c2cn(C)c(=O)c3[nH]c(-c4ccnc(C(F)(F)F)c4)cc23)c2ccccc21` [Example 53, (1R,2S)-1′-methyl-2-{6-methyl-7-oxo-2-[2-(trifluoromethyl)pyridin-4-yl]-6,7-dihydro-1H-pyrrolo[2,3-c]pyridin-4-yl}spiro[cyclopropane-1,3′-indol]-2′(1H)-one], for which, on BRD4 (BDI_K57-E168), the pKi is 5.55.
